{
  "source": "patent US12280039B2",
  "about": "“Cancer vaccine compositions and methods of use thereof” (priority 2018, dated 2025)",
  "system": "live 4T1 tumor cells",
  "test": "Serum IgG antibody binding to live 4T1 tumor cells",
  "assay_type": "in vivo, mice",
  "settings": "inactivated 4T1 vaccine day 1 and 14; serum 1:1000 dilution",
  "protocol": "The vaccines were given subcutaneously in equal volumes in both the left and right forelimb of the mice, close to the foot. Mice received 1.7×10^6 cells per mouse per vaccine. Vaccines were given on day 1 and then again on day 14. Mice were euthanized 8 days after the booster vaccine was given and spleen and blood was collected. The serum from these mice was screened against live 4T1 tumor cells for IgG antibody binding by incubating serum with the cells at either a 1:500 or a 1:1000 dilution, staining with a fluorescently-labeled donkey anti-mouse secondary antibody, then subtracting out the background staining (normal mouse serum at 1:500 and 1:1000).",
  "data": [
    {"compound": "CC(C)Cn1cnc2c(N)nc3ccccc3c21", "note": "[Imiquimod, imiquimod]", "values": [
      {"measurement": "serum IgG binding to live 4T1 cells (staining)", "value": "variable amounts"}
    ]}
  ]
}
